Reference: US9732087B2, “Diamino-pyridine, pyrimidine, and pyridazine modulators of the histamine H4 receptor” (JANSSEN PHARMACEUTICA NV, priority 2008, dated 2017)
Structures can show the parent of a compound that is named as a salt. Where two headings read alike, the source gives them in different places.

Assays:
[1] = test system: diabetes induced obese (DIO) mouse model; assay: Insulin resistance in diabetes induced obese (DIO) mouse model; format: in vivo
Method: Insulin Resistance in Diabetes Induced Obese Mouse Model.
The effect of administration of an H4R antagonist, 5-fluoro-4-methyl-2-{5-methyl-2-[4-(1-methyl-piperidin-4-yl)-butoxy]-pyridin-4-yl}-1H-benzoimidazole (U.S. Pat. No. 7,432,378, Example 165), was tested in the treatment of insulin resistance in the diabetes induced obese (DIO) mouse model. […] Our data support the claim that H4R antagonists have beneficial properties towards the treatment of type 2 diabetes and related metabolic diseases.

human H4 receptor [2] = target: T1, human H4 receptor (Homo sapiens (Human), UniProt Q9H3N8); assay: Binding assay on recombinant human histamine H4 receptor ([3H]histamine competition, SK-N-MC cell membranes); details: [3H]histamine 10 nM, average of results
Method in brief: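 Membranes from SK-N-MC cells stably or transiently transfected with human H4 receptor, prepared by homogenization and 30,000 g centrifugation in Tris/EDTA. Bound [3H]histamine separated by rapid filtration on PEI-treated GF/C filters, washed with ice-cold Tris/EDTA, counted by scintillation. '>' values denote highest concentration tested.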

human H4 receptor [3] = target: T1, human H4 receptor; assay: cell-based; format: cell-based
Method: SK-N-MC cell lines were created that express a reporter gene construct and the human H4 receptor full-coding region (NCBI accession No. AF312230). The reporter gene was β-galactosidase under the control of cyclic AMP-responsive elements. Cells were plated in 96-well plates the night before the assay. Histamine was used as the agonist for all assay. For the H4 receptor, the inhibition of forskolin-stimulated cAMP production was measured. For determination of antagonist activity, compounds were added 10 min prior to the addition of agonist, which was added directly to the cell medium. Forskolin (5 μM final concentration) was added 10 min after the addition of histamine. Cells were returned to the incubator for 6 h at 37° C. The medium was then aspirated, and the cells were washed with […] of phosphate-buffered saline (PBS). Cells were lysed with 25 μL of 0.1X assay buffer (10 mM sodium phosphate, pH 8, 0.2 mM MgSO4, and 0.01 mM MnCl2) and incubated at rt for 10 min. Cells were then incubated for 10 min with 100 μL of 1X assay buffer containing 0.5% (v/v) Triton X-100 and 40 mM β-mercaptoethanol. Color was developed using 25 μL of 1 mg/mL substrate solution (chlorophenol red β-D-galactopyranoside; Roche Applied Science, Indianapolis, Ind.). Color was quantitated on a microplate reader by measuring the absorbance at 570 nm. The data from each concentration-response curve were fitted to a sigmoidal curve to obtain the maximum response, Hill coefficient, and EC50 using Prism (GraphPad Software, San Diego, Calif.). Dose ratios were calculated from individual concentration-response curves of agonists at three to five antagonist concentrations. Apparent pA2 values were calculated using a Schild plot (ND=not determined).

mast cells [4] = details: cited from earlier work
eosinophils = details: cited from earlier work
[5] = test system: lipopolysaccharide (LPS)-induced tumor necrosis factor alpha (TNF-α) production; details: in vivo; cited from earlier work
H4 receptor (H4R) = H4 receptor (H4R) (Homo sapiens (Human), UniProt Q9H3N8); details: in vitro; cited from earlier work
mast cells [6] = details: cited from earlier work; remark: listed apart in the source
[7] = test system: mouse models of asthma, arthritis and dermatitis; details: in vivo; cited from earlier work
[8] = membranes harvested with cell harvester, read-out: Cell Harvester Ki
[9] = apparent pA2 from Schild plot, antagonism of histamine inhibition of forskolin-stimulated cAMP, read-out: pA2 (converted)
[10] = apparent pA2 from Schild plot, antagonism of histamine inhibition of forskolin-stimulated cAMP
[11] = membranes harvested with 96 well Brandel system, read-out: Brandel Ki

Row | Ki (human H4 receptor [2]; [8]) | Kb (human H4 receptor [3]; [9]) | Structure (SMILES) | further results
1 | 54.3 nM | 63.1 nM | CN[C@H]1CCN(c2cnnc(NC3CCCC3)c2)C1 [Example 380, N-Cyclopentyl-5-[(3S)-3-(methylamino)pyrrolidin-1-yl]pyridazin-3-amine] | 
2 | 18.3 nM | 7.94 nM | CN[C@@H]1CCN(c2cnnc(NCC(C)(C)C)c2)C1 [Example 392, N-(2,2-Dimethylpropyl)-5-[(3R)-3-(methylamino)pyrrolidin-1-yl]pyridazin-3-amine] | 
3 | 8.41 nM |  | CN[C@H]1CCN(c2ccnc(NC3CC4CCC3C4)c2)C1 (stereo partly drawn) [Example 231, N-Bicyclo[2.2.1]hept-2-yl-4-[(3S)-3-(methylamino)pyrrolidin-1-yl]pyridin-2-amine] | pA2 (human H4 receptor [3]; [10]): 9
4 | 96.7 nM | 39.8 nM | CNC1CN(c2cnnc(NC3CC4CCC3C4)c2)C1 (centres unmarked) [Example 331, N-Bicyclo[2.2.1]hept-2-yl-5-[3-(methylamino)azetidin-1-yl]pyridazin-3-amine] | 
5 | 18.4 nM | 79.4 nM | c1nnc(NC2CC3CCC2C3)cc1N1CCCNCC1 (centres unmarked) [Example 308, N-Bicyclo[2.2.1]hept-2-yl-5-(1,4-diazepan-1-yl)pyridazin-3-amine] | 
6 | > 10000 nM |  | NC1CN(c2cnnc(NCC3CCCC3)c2)C1 [Example 358, 5-(3-Aminoazetidin-1yl)-N-(cyclopentylmethyl)pyridazin-3-amine] | 
7 | 88.1 nM |  | NC1CN(c2cnnc(NC3CC4CCC3C4)c2)C1 (centres unmarked) [Example 322, 5-(3-Aminoazetidin-1-yl)-N-bicyclo[2.2.1]hept-2-ylpyridazin-3-amine] | 
8 | 2900 nM |  | c1nnc(NC2CCCCC2)cc1N1CCNCC1 [Example 355, N-Cyclohexyl-5-piperazin-1-ylpyridazin-3-amine] | 
9 | 220 nM |  | CC(C)CNc1cc(N2CC[C@H](N)C2)cnn1 [Example 339, 5-[(3S)-3-Aminopyrrolidin-1-yl]-N-(2-methylpropyl)pyridazin-3-amine] | 
10 | > 10000 nM |  | COCCNc1cc(N2CC[C@H](N)C2)ccn1 [Example 264, 4-[(3S)-3-Aminopyrrolidin-1-yl]-N-(2-methoxyethyl)pyridin-2-amine] | 
11 | 95.3 nM |  | CNC1CN(c2cnnc(NCC3CC3)c2)C1 [Example 327, N-(Cyclopropylmethyl)-5-[3-(methylamino)azetidin-1-yl]pyridazin-3-amine] | 
12 | 6.16 nM |  | CN[C@@H]1CCN(c2cnnc(N[C@H](C)C3CCCCC3)c2)C1 [Example 378, N-[(1R)-1-Cyclohexylethyl]-5-[(3R)-3-(methylamino)pyrrolidin-1yl]pyridazin-3-amine] | 

The remaining lines, values behind:

Row | Structure (SMILES) | Ki (human H4 receptor [2]; [8]) | Kb (human H4 receptor [3]; [9]) | further results
13 | Cc1cnc(OCCCCC2CCN(C)CC2)cc1-c1nc2c(C)c(F)ccc2[nH]1 [5-Fluoro-4-methyl-2-{5-methyl-2-[4-(1-methyl-piperidin-4-yl)-butoxy]-pyridin-4-yl}-1H-benzoimidazole] |  |  | MCP-1 and TNF-α expression [1]: reduced; fat content in liver [1]: significantly reduced; fed and fasted glucose levels ([1]; 20 mg/kg PO): significantly reduced; insulin sensitivity as determined by an insulin tolerance test ([1]; 20 mg/kg PO): improved
14 | CN[C@@H]1CCN(c2ccnc(NC[C@H]3CC[C@H]4C[C@@H]3C4(C)C)c2)C1 [Example 217, N-{[(1S,2S,5S)-6,6-Dimethylbicyclo[3.1.1]hept-2-yl]methyl}-4-[(3R)-3-(methylamino)pyrrolidin-1-yl]pyridin-2-amine] | 24.3 nM | 31.6 nM | 
15 | CN[C@@H]1CCN(c2ccnc(NCC3CC3)c2)C1 [Example 4, N-(Cyclopropylmethyl)-4-[(3R)-3-(methylamino)pyrrolidin-1-yl]pyridin-2-amine ditrifluoroacetate] | 4.9 nM | 1.38 nM | 
16 | CN[C@H]1CCN(c2ccnc(NC3CC4CCC3C4)n2)C1 (stereo partly drawn) [Example 162, N-Bicyclo[2.2.1]hept-2-yl-4-[(3S)-3-(methylamino)pyrrolidin-1-yl]pyrimidin-2-amine] | 7.14 nM |  | pA2 (human H4 receptor [3]; [10]): 8.1
17 | CN[C@@H]1CCN(c2ccnc(NCC34CC5CC(CC(C5)C3)C4)c2)C1 [Example 220, Adamantan-1-ylmethyl-[4-(3R)-(3-methylamino-pyrrolidin-1-yl)-pyridin-2-yl]-amine] | 6.48 nM | 25.1 nM | 
18 | CCCNc1cc(N2CC[C@@H](NC)C2)ccn1 [Example 3, 4-[(3R)-3-(Methylamino)pyrrolidin-1-yl]-N-propylpyridin-2-amine dihydrochloride] | 7.26 nM | 2 nM | 
19 | CN[C@@H]1CCN(c2cnnc(NCC(C)C)c2)C1 [Example 95, 5-[(3R)-3-(Methylamino)pyrrolidin-1-yl]-N-(2-methylpropyl)pyridazin-3-amine] | 15 nM |  | Ki (human H4 receptor [2]; [11]): 15 nM; pA2 (human H4 receptor [3]; [10]): 7.8
20 | CC(C)CNc1cc(N2CC[C@@H](N)C2)ccn1 [Example 20, 4-[(3R)-3-Aminopyrrolidin-1-yl]-N-(2-methylpropyl)pyridin-2-amine dihydrochloride] |  | 20 nM | Ki (human H4 receptor [2]; [11]): 3.5 nM
21 | CN[C@@H]1CCN(c2ccnc(NC[C@H]3CC[C@H]4C[C@@H]3C4(C)C)n2)C1 [Example 193, N-{[(1S,2S,5S)-6,6-Dimethylbicyclo[3.1.1]hept-2-yl]methyl}-4-[(3R)-3-(methylamino)pyrrolidin-1-yl]pyrimidin-2-amine] | 16 nM | 12.6 nM | 
22 | CC(C)CNc1cc(N2C[C@H]3CCN[C@H]3C2)ccn1 [Example 257, 4-[(3aR,6aR)-Hexahydropyrrolo[3,4-b]pyrrol-5(1H)-yl]-N-(2-methylpropyl)pyridin-2-amine] | 64.5 nM |  | Kb (human H4 receptor [3]): 50.1 nM
23 | CN[C@@H]1CCN(c2ccnc(NC(C)C)c2)C1 [Example 12, 4-[(3R)-3-(Methylamino)pyrrolidin-1-yl]-N-(1-methylethyl)pyridin-2-amine] | 19.2 nM |  | pA2 (human H4 receptor [3]; [10]): 8.5
24 | Cc1cc(C)c2nc(-c3cnc(NCCCC4CCN(C)CC4)nc3C)[nH]c2c1 [[5-(4,6-dimethyl-1H-benzoimidazol-2-yl)-4-methyl-pyrimidin-2-yl]-[3-(1-methyl-piperidin-4-yl)-propyl]-amine] |  |  | chemotaxis of mast cells (mast cells [4]): inhibited; histamine-induced shape change of eosinophils (eosinophils): inhibited; LPS-induced TNF-α production and other cytokines [5]: inhibited; selectivity over other histamine receptors (H4 receptor (H4R)): greater than 25 fold; IL-6 production in mast cells (mast cells [6]): inhibited; inflammation in mouse models of asthma, arthritis and dermatitis [7]: reduced inflammation
25 | CN[C@@H]1CCN(c2ccnc(NC3CC3)c2)C1 [Example 8, N-Cyclopropyl-4-[(3R)-3-(methylamino)pyrrolidin-1-yl]pyridin-2-amine dihydrochloride] | 10.6 nM |  | 
26 | N[C@H]1CCN(c2ccnc(NCC3CCCC3)n2)C1 [Example 149, 4-[(3S)-3-Aminopyrrolidin-1-yl]-N-(cyclopentylmethyl)pyrimidin-2-amine] | 23.8 nM |  | 
27 | CNC1CN(c2ccnc(NCCOC)n2)C1 [Example 182, N-(2-Methoxyethyl)-4-[3-(methylamino)azetidin-1-yl]pyrimidin-2-amine] | 45.4 nM |  | 
28 | NC1CN(c2ccnc(NCCCO)n2)C1 [Example 155, 3-{[4-(3-Aminoazetidin-1-yl)pyrimidin-2-yl]amino}propan-1-ol] | 745 nM |  | 
29 | CN[C@H]1CCN(c2ccnc(NC3CC3)n2)C1 [Example 145, N-Cyclopropyl-4-[(3S)-3-(methylamino)pyrrolidin-1-yl]pyrimidin-2-amine] | 923 nM |  | 
